Experimental data as given in ChEMBL document CHEMBL6115002, “Discovery of novel sitolactone derivative leading to PANoptosis and differentiation of acute myeloid leukemia cells” (Eur J Med Chem, 2025).
pIC50: −log10 of the molar value. Calls of active or inactive are those of the source. The calls are words filed in the database; no cut-off is given here.

Assays:
[1] = system: Kasumi 1; test: Induction of cell cycle arrest in human Kasumi 1 cells assessed as increase in accumulation of cells at S phase at 1 uM incubated for 24 hrs by propidium iodide staining based flow cytometric analysis (reference value: 39.77%); format: functional
[2] = Permeability of compound in human Caco-2 cells; format: ADME, cell-based
[3] = system: Kasumi 1; test: Induction of cell cycle arrest in human Kasumi 1 cells assessed as increase in P53 level at 0.15 to 1.2 uM incubated for 24 hrs by Western blotting analysis; format: functional, cell-based; settings: dose 0.15-1.2 µM
[4] = system: Kasumi 1; test: Induction of apoptosis in human Kasumi 1 cells assessed as increase in cleaved PARP-1 level incubated for 72 hrs by Western blotting analysis; format: functional, cell-based; settings: dose 0.625-5 µM
[5] = Induction of cell cycle arrest in mouse WEHI-3 cells assessed as increase in accumulation of cells at S phase at 0.5 uM incubated for 24 hrs by propidium iodide staining based flow cytometric analysis (reference value: 51.22%); format: functional
[6] = system: Kasumi 1; test: Induction of cell cycle arrest in human Kasumi 1 cells assessed as increase in accumulation of cells at G1 phase at 0.5 uM incubated for 24 hrs by propidium iodide staining based flow cytometric analysis (reference value: 50.41%); format: functional
[7] = system: SW1990; test: Antiproliferative activity against human SW1990 cells assessed as inhibition of cell proliferation incubated for 72 hrs by CCK-8 assay; format: functional, cell-based; settings: SW1990, 72 h
[8] = system: Kasumi 1; test: Induction of pyroptosis in human Kasumi 1 cells assessed as effect on cleaved N-GSDMB at 0.6 to 2.5 uM incubated for 24 hrs by Western blotting analysis; format: functional, cell-based; settings: dose 0.6-2.5 µM
[9] = system: Kasumi 1; test: Induction of cell cycle arrest in human Kasumi 1 cells assessed as increase in accumulation of cells at S phase at 0.5 uM incubated for 24 hrs by propidium iodide staining based flow cytometric analysis (reference value: 39.77%); format: functional
[10] = system: WEHI-3; test: Induction of cell cycle arrest in mouse WEHI-3 cells assessed as increase in P21 level at 0.15 to 1.2 uM incubated for 24 hrs by Western blotting analysis; format: functional, cell-based; settings: dose 0.15-1.2 µM
[11] = system: Z-138; test: Antiproliferative activity against human Z138 cells assessed as inhibition of cell proliferation incubated for 72 hrs by CCK-8 assay; format: functional, cell-based; settings: Z-138, 72 h
[12] = system: WEHI-3; test: Induction of apoptosis in mouse WEHI-3 cells assessed as increase in caspase-3 level incubated for 72 hrs by Western blotting analysis; format: functional, cell-based; settings: dose 0.625-5 µM
[13] = system: MIA PaCa-2; test: Antiproliferative activity against human MIA PaCa-2 cells assessed as inhibition of cell proliferation incubated for 72 hrs by CCK-8 assay; format: functional, cell-based; settings: MIA PaCa-2, 72 h
[14] = (§1) Toxicity in Balb/c mouse implanted with mouse WEHI-3 cells assessed as separation between white and red pulp area in spleen at 100 to 200 mg/kg, po administered (4aR,6aS,7S,9aS,9bS)-2-(((S)-2-(hydroxymethyl)pyrrolidin-1-yl)methyl)-6a-methyl7 ((triisopropylsilyl)oxy)decahydrocyclopenta[f]chromen-3(2H)-one as prodrug once daily and measured after 15 days; format: organism-based; settings: in vivo, 360 h, dose 100-200 mg/kg, time 15 day
[15] = system: Kasumi 1; test: Induction of cell differentiation in human Kasumi 1 cells assessed as increase in CD11B expression by Western blotting analysis; format: functional, cell-based; settings: dose 0.25-1 µM
[16] = Induction of cell cycle arrest in mouse WEHI-3 cells assessed as increase in accumulation of cells at G1 phase at 1 uM incubated for 24 hrs by propidium iodide staining based flow cytometric analysis (reference value: 46.93%); format: functional
[17] = as §1, with “animal survival” for “separation between white and red pulp area in spleen”; format: organism-based; settings: in vivo, 360 h, dose 100-200 mg/kg, time 15 day
[18] = system: Kasumi 1; test: Induction of cell cycle arrest in human Kasumi 1 cells assessed as increase in P21 level at 0.15 to 1.2 uM incubated for 24 hrs by Western blotting analysis; format: functional, cell-based; settings: dose 0.15-1.2 µM
[19] = system: NCI-H460; test: Inhibition of tumor sphere formation in human NCI-H460 cells incubated for 24 hrs; format: functional, cell-based
[20] = system: WEHI-3; test: Antitumor activity against mouse WEHI-3 cells implanted in Balb/c mouse assessed as reduction in liver metastasis at 1 mg/kg, po administered daily for 15 days by H and E staining based analysis; format: functional, organism-based; settings: time 15.0 day
[21] = system: Kasumi 1; test: Induction of cell cycle arrest in human Kasumi 1 cells assessed as increase in accumulation of cells at G1 phase at 1 uM incubated for 24 hrs by propidium iodide staining based flow cytometric analysis (reference value: 50.41%); format: functional
[22] = Induction of cell cycle arrest in mouse WEHI-3 cells assessed as increase in accumulation of cells at G2 phase at 0.5 uM incubated for 24 hrs by propidium iodide staining based flow cytometric analysis (reference value: 1.85%); format: functional
[23] = system: NCI-H460; test: Antiproliferative activity against human NCI-H460 cells assessed as inhibition of cell proliferation incubated for 72 hrs by CCK-8 assay; format: functional, cell-based; settings: NCI-H460, 72 h
[24] = as §1, with “change” for “separation between white and red pulp area”, “body weight” for “spleen”; format: organism-based; settings: in vivo, 360 h, dose 100-200 mg/kg, time 15 day
[25] = system: HCT-116; test: Anti-cancer activity against human HCT-116 cells assessed as reduction in size of spheroids incubated for 24 hrs; format: functional, cell-based
[26] = system: Kasumi 1; test: Induction of cell cycle arrest in human Kasumi 1 cells assessed as increase in accumulation of cells at G1 phase at 0.25 uM incubated for 24 hrs by propidium iodide staining based flow cytometric analysis (reference value: 50.41%); format: functional
[27] = system: WEHI-3; test: Induction of cell differentiation in mouse WEHI-3 cells assessed as lobulated nuclei at 1 uM incubated for 24 hrs by giemsa-Wrights staining based analysis; format: functional
[28] = system: NCI-H358; test: Antiproliferative activity against human NCI-H358 cells assessed as inhibition of cell proliferation incubated for 72 hrs by CCK-8 assay; format: functional, cell-based; settings: NCI-H358, 72 h
[29] = Induction of cell cycle arrest in mouse WEHI-3 cells assessed as increase in accumulation of cells at G1 phase at 0.25 uM incubated for 24 hrs by propidium iodide staining based flow cytometric analysis (reference value: 46.93%); format: functional
[30] = system: WEHI-3; test: Induction of pyroptosis in mouse WEHI-3 cells assessed as increase in p-MLKL level at 0.625 to 5 uM incubated for 72 hrs by Western blotting analysis; format: functional, cell-based; settings: dose 0.625-5 µM
[31] = system: A549; test: Antiproliferative activity against human A549 cells assessed as inhibition of cell proliferation incubated for 72 hrs by CCK-8 assay; format: functional, cell-based; settings: A549, 72 h
[32] = system: Jurkat; test: Antiproliferative activity against human Jurkat cells assessed as inhibition of cell proliferation incubated for 72 hrs by CCK-8 assay; format: functional, cell-based
[33] = system: BXPC-3; test: Antiproliferative activity against human BXPC-3 cells assessed as inhibition of cell proliferation incubated for 72 hrs by CCK-8 assay; format: functional, cell-based; settings: BXPC-3, 72 h
[34] = system: Kasumi 1; test: Antiproliferative activity against human Kasumi 1 cells assessed as inhibition cell proliferation incubated for 72 hrs by MTT assay; format: functional, cell-based; settings: Kasumi 1, 72 h
[35] = system: WEHI-3; test: Induction of cell cycle arrest in mouse WEHI-3 cells assessed as increase in P53 level at 0.15 to 1.2 uM incubated for 24 hrs by Western blotting analysis; format: functional, cell-based; settings: dose 0.15-1.2 µM

Which Activity [1] does the source give for `C=C1C[C@@H]2[C@@H](CC[C@]3(C)[C@@H](O[Si](C(C)C)(C(C)C)C(C)C)CC[C@@H]23)OC1=O` here?
Its Activity is 22.53%.

What about the permeability [2] of the same compound?
The permeability was “Permeable”.

What about the Activity [3] of the same compound?
Its Activity is “Active”.

And the Activity [4]?
Its Activity is “Dose-dependent-effect”.

And the Activity [5]?
The Activity was 43.52%.

What about the Activity [6] of the same compound?
The Activity was 53.53%.

What about the pIC50 [7] of the same compound?
Its pIC50 is under 5.00.

And the Activity [8]?
The Activity was “Active”.

And the Activity [9]?
Its Activity is 31.64%.

What about the Activity [10] of the same compound?
Its Activity is “Active”.

What about the pIC50 [11] of the same compound?
The pIC50 was 5.73.

And the Activity [12]?
Its Activity is “Dose-dependent-effect”.

And the pIC50 [13]?
The pIC50 was 5.77.

What about the Activity [14] of the same compound?
Its Activity is “Non-toxic”.

And the Activity [15]?
Its Activity is “Dose-dependent-effect”.

And the Activity [16]?
Its Activity is 64.54%.

What about the Activity [17] of the same compound?
Its Activity is “Non-toxic”.

And the Activity [18]?
The Activity was “Active”.

What about the inhibition [19] of the same compound?
Its inhibition is “Active”.

What about the Activity [20] of the same compound?
The Activity was “Active”.

What about the Activity [21] of the same compound?
The Activity was 58.52%.

And the Activity [22]?
The Activity was 3.33%.

And the pIC50 [23]?
Its pIC50 is 5.55.

And the Activity [24]?
Its Activity is “Non-toxic”.

And the Activity [25]?
Its Activity is “Active”.

And the Activity [26]?
Its Activity is 52.67%.

And the Activity [27]?
Its Activity is “Active”.

What about the pIC50 [28] of the same compound?
Its pIC50 is 5.75.

What about the Activity [29] of the same compound?
Its Activity is 51.78%.

What about the Activity [30] of the same compound?
Its Activity is “Active”.

What about the pIC50 [31] of the same compound?
The pIC50 was 5.28.

And the pIC50 [32]?
Its pIC50 is 5.59.

What about the pIC50 [33] of the same compound?
The pIC50 was under 5.00.

What about the pIC50 [34] of the same compound?
Its pIC50 is 6.24.

And the Activity [35]?
The Activity was “Active”.
